Results reported in US20040265847A1, “Method for treating Alzheimer's disease” (priority 1991, published 2004).

Key:
APP-degrading protease = assay: Assay of APP-degrading protease (Zn^2+-enhanced degradation of plasma 130 kDa APP); assay type: biochemical, human
[1] = tested on: human brain membrane-derived APP; assay: trypsin digestion of human brain membrane-derived APP, Western blot with 22C11; assay type: biochemical
From the text: The proteolytic activity of trypsin (Boehringer, Mannheim) was studied to determine whether it was modulated by a range of doses of heparin (Sigma) and ZnCl2. […] Western blots for APP using the APP binding monoclonal antibody 22C11 were used to monitor the progression of the proteolytic reaction and to detect breakdown products.

trypsin = assay: tryptic activity on fluorogenic substrate Z-F-R-AMC; assay type: biochemical; conditions: range of doses
PC12 cells = assay: Effect of extracellular APP on zinc uptake by PC12 cells; assay type: cell-based; conditions: 10 nM APP, within an hour (=4% in the absence of APP)
Procedure: 10^6 PC12 cells were plated for 24 hr in the presence of Dulbecco's modified Eagle's medium (DMEM, N2) supplemented with 8% fetal calf serum (FCS). The medium was then removed and replaced with DMEM with no FCS and incubated for a further 24 hr. The cells were then washed (×2 with DMEM) and incubated with DMEM supplemented with 10 nM 130/110 kDa purified brain membrane-associated APP carrying 20 000 CPM ^65Zn prepared as in FIG. 1 above. Following varying periods of incubation, the cells were harvested, washed, exposed to Pronase digestion to remove surface proteins and then lysed in scintillant and assayed in a beta-counter.

[2] = target: T1, APP purified from rat brain (Rattus norvegicus, UniProt P08592); assay: heparin binding to APP in a Biosensor system; conditions: summary statement, 'may increase'
T1 construct: from tissue; host or cells: rat brain
Procedure: The effect of Zn^2+ in modulating heparin binding to APP was also studied in a Biosensor system. […] This effect was most pronounced and most specific for Zn^2+, as opposed to the absence of divalent cations or the presence of Ca^2+, Mg^2+ or Co^2+, and was most evident when the heparin:APP ratio was low. […] Zn^2+ at 50 nM promoted a =170% increase in heparin binding, the effect saturating at 70 μM.

plasma APP = assay: Effect of zinc loading upon human plasma APP; assay type: in vivo
Procedure: (§1) 100 mg elemental zinc (as sulphate, in capsules) was given orally to two individuals with Alzheimer's disease (NINCDS/ADRDC criteria with abnormal plasma APP profiles) and two age-matched controls (with normal plasma APP profiles). Zinc was continued for 7 days and morning fasting bloods collected before the commencement of zinc supplements and three weeks after ceasing the supplement. Western blots with monoclonal antibody 22C11 were carried out on 65 μg of plasma heparin-Sepharose eluate purified from the samples in the manner previously described. The results indicated an increase of 130 kDa species plasma APP relative to the other species present, in other words a shift towards the profile of APP species that is characteristic of Alzheimer's disease. The two control plasma APP profiles came to resemble Alzheimer's disease profiles, and the two Alzheimer's profiles worsened. The proportional increase in the 130 kDa species was approximately 20% per day of zinc supplementation.

[3] = Administration of zinc in Alzheimer's disease: neurological response; assay type: in vivo, human
Procedure: as §1
The subjects from Example 3 were studied.
The two AD volunteers because acutely unwell while on zinc supplementation. […] Eye movement abnormalities and general levels of self care worsened over the period of supplementation. This response was consistent with a neurotoxic response to the zinc supplementation.

T1 sequence (P08592 18-770): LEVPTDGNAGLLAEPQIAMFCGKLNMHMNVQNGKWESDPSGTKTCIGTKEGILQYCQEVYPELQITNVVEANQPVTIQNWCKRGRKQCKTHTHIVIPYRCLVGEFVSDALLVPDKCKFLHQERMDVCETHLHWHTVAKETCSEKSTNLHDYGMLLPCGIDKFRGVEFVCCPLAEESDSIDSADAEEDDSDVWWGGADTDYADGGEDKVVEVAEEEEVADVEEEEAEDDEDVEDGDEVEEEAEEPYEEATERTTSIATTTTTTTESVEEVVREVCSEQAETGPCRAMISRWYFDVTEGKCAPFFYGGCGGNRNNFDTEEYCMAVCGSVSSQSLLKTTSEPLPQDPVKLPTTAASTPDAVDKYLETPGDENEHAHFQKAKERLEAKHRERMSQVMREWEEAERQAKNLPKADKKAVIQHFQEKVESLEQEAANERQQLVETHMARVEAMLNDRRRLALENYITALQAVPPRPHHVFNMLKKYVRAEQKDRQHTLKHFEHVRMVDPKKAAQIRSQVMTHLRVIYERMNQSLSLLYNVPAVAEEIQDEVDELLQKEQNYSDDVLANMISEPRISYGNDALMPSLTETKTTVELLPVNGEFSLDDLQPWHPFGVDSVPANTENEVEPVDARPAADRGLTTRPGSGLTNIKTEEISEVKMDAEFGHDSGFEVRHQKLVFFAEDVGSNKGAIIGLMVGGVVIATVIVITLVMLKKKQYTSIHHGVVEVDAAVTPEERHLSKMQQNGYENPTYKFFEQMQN

## heparin [reference compound]
APP-degrading protease; young adult control preparation, two hours at 37° C., 20 μM ZnCl2
  influence on Zn^2+-enhanced APP proteolysis: completely inhibited
[1]
  concentration at which protective effect saturated: 10 µM
[1]; trypsin 1:64, one hour at 37° C.
  heparin concentration causing marked reduction in rate and degree of brain APP degradation by trypsin: 100 nM
trypsin
  effect on tryptic activity: left tryptic activity unaltered

## APP: 130/110 kDa purified brain membrane-associated amyloid precursor protein carrying ^65Zn
PC12 cells
  ^65Zn counts internalized: 10%

## [Zn] [zinc]
APP-degrading protease; plasma APP from heparin-Sepharose eluates, 37° C.
  zinc concentration required to stimulate proteolysis: 20 μm
[2]
  increase of APP affinity for heparin: 5 to 10 fold
[1]; summary statement
  zinc concentration at which the protective effects of heparin are abolished: above 1 μm
Plasma APP; 100 mg elemental zinc orally for 7 days, AD and age-matched controls
  proportional increase in the 130 kDa species of plasma APP: approximately 20 % per day
Plasma APP; elderly control, four-fold higher dose over three days
  persistence of changes in plasma APP profile: persisted for three days after ceasing supplementation
[3]; AD volunteers
  return of cognitive function to previous levels after ceasing supplementation: within two weeks
[3]; AD volunteers, over the period of supplementation
  eye movement abnormalities and general levels of self care: worsened
[3]; Alzheimer's disease volunteers on oral zinc supplementation
  mini-mental state examination scores: deteriorating from moderately demented levels to unrecordable
[3]; healthy volunteers on zinc supplementation
  ill effects in healthy volunteers: no ill effects
